Measured values: patent US10188108B2, “Fused bicyclic heterocycle derivatives as pesticides” (BAYER CROPSCIENCE AKTIENGESELLSCHAFT, priority 2015, dated 2019)
Where two headings read alike, the source gives them in different places.

Key:
[1] = log P by HPLC on a reversed-phase column (C 18), EEC Directive 79/831 Annex V.A8; assay type: physicochemical; settings: for LOGP_NEUTRAL: pH 7.8, 0.001 molar aqueous ammonium hydrogencarbonate/acetonitrile; for chromatographic logP: reversed-phase HPLC column (C 18)
Method: The log P values are measured according to EEC Directive 79/831 Annex V.A8 by HPLC (high-performance liquid chromatography) on a reversed-phase column (C 18). Temperature: 55° C.
The LC-MS determination in the acidic range is effected at pH 2.7 using 0.1% aqueous formic acid and acetonitrile (contains 0.1% formic acid) as eluents; linear gradient from 10% acetonitrile to 95% acetonitrile. Called log P (HCOOH) in the table.
LC-MS determination in the neutral range is effected at pH 7.8 with 0.001 molar aqueous ammonium hydrogencarbonate solution and acetonitrile as eluents; linear gradient from 10% acetonitrile to 95% acetonitrile. Called log P (neutral) in the table.
Calibration is carried out using unbranched alkan-2-ones (having 3 to 16 carbon atoms) with known log P values (log P values determined on the basis of the retention times by linear interpolation between two successive alkanones).

Phaedon cochleariae = Phaedon cochleariae - spray test; assay type: in vivo; settings: after 7 days, larvae on Chinese cabbage leaf discs
Method: (§1) • Solvent: 78.0 parts by weight of acetone • 1.5 parts by weight of dimethylformamide • Emulsifier: alkylaryl polyglycol ether
(§2) To produce a suitable preparation of active compound, 1 part by weight of active compound is dissolved using the stated parts by weight of solvent and made up with water containing an emulsifier concentration of 1000 ppm until the desired concentration is attained. To produce further test concentrations, the preparation is diluted with emulsifier-containing water.
After 7 days, the efficacy in % is determined. 100% means that all the beetle larvae have been killed; 0% means that no beetle larvae have been killed.

Spodoptera frugiperda = Spodoptera frugiperda - spray test; assay type: in vivo; settings: 500 g/ha, after 7 days, caterpillars on maize leaf discs
Method: as §1, §2
Leaf discs of maize (Zea mays) are sprayed with an active compound preparation of the desired concentration and, after drying, populated with caterpillars of the armyworm (Spodoptera frugiperda).
After 7 days, the efficacy in % is determined. 100% means that all the caterpillars have been killed; 0% means that no caterpillars have been killed.

[2] = acidic range, pH 2.7, 0.1% aqueous formic acid/acetonitrile, 55° C.
[3] = acidic range, pH 2.7, value in preparation example text, read-out: log P (acidic)
[4] = neutral range, pH 7.8, value in preparation example text, read-out: log P (neutral)
[5] = acidic range, pH 2.7, 0.1% aqueous formic acid/acetonitrile, 55° C., read-out: LOGP_HCOOH

Row | SMILES | LOGP_HCOOH [1, 2] | LOGP_NEUTRAL ([1]; neutral range, 55° C.) | efficacy (Phaedon cochleariae; 500 g/ha) | efficacy (Spodoptera frugiperda) | also measured
1 | CCSc1c(-c2nc3cc(C(F)(F)F)ccc3n2C)nc2ccc(C)cn12 [Example I-38] | 3.57 | – | – | – | –
2 | CCS(=O)(=O)c1c(-c2nc3cc(C(F)(F)F)ncc3n2C)nc2c(C(F)(F)F)cccn12 [Example I-24] | 2.92 | 2.90 | 100% | 100% | –
3 | CC[S+]([O-])c1c(-c2nc3cc(C(F)(F)F)ncc3n2C)nc2ccc(OC)cn12 (stereo not drawn) [Example I-55] | 2.54 | 2.48 | – | – | –
4 | CCSc1c(-c2nc3cc(C(F)(F)F)ccc3n2C)nc2ccc(Cl)cn12 [Example I-29] | 4.12 | – | 100% | 100% | –
5 | O=C(O)c1nc2cc(C(F)(F)F)ccn2c1Cl [III-1, 3-Chloro-7-(trifluoromethyl)imidazo[1,2-a]pyridine-2-carboxylic acid] | – | – | – | – | chromatographic logP [1, 3]: 1.5
6 | CCSc1cccc2nc(-c3nc4cc(C(F)(F)F)ccc4n3C)c(SCC)n12 [Example I-31] | 3.95 | – | – | – | –
7 | CCSc1c(-c2nc3cc(C(F)(F)F)ccc3n2C)nc2cc(C(F)(F)F)ccn12 [Example I-30] | 4.50 | – | 83% | 100% | –
8 | Cn1c(-c2nc3ccccn3c2Cl)nc2cc(C(F)(F)F)ncc21 [Example V-1, 2-(3-Chloroimidazo[1,2-a]pyridin-2-yl)-3-methyl-6-(trifluoromethyl)imidazo[4,5-c]pyridine] | – | – | – | – | chromatographic logP [1, 4]: 2.38
9 | CCSc1c(-c2nc3cc(C(F)(F)F)ncc3n2C)nc2ccc(C(F)(F)F)cn12 [Example I-5] | 3.81 | 3.75 | – | 100% | –
10 | CCSc1c(-c2nc3cc(C(F)(F)F)ccc3n2C)nc2cc(C)ccn12 [Example I-37] | 3.41 | – | – | – | –
11 | CCSc1c(-c2nc3cc(C(F)(F)F)ccc3n2C)nc2ccc(C(F)(F)F)cn12 [Example I-28] | 4.47 | – | – | 100% | –
12 | CCSc1c(-c2nc3cc(C(F)(F)F)ncc3n2C)nc2ccc(C)cn12 [Example I-45] | 3.20 | 3.22 | – | – | –
13 | CCSc1c(-c2nc3cc(C(F)(F)F)ncc3n2C)nc2ccc(Cl)cn12 [Example I-3] | 3.59 | – | – | 100% | –
14 | CCSc1c(C(=O)Nc2cc(C(F)(F)F)cnc2Cl)nc2ccccn12 [XXVI-1, N-[2-Chloro-5-(trifluoromethyl)pyridin-3-yl]-3-(ethylsulphanyl)imidazo[1,2-a]pyridine-2-carboxamide] | – | – | – | – | chromatographic logP [1, 4]: 4.39
15 | CCSc1c(-c2nc3cc(C(F)(F)F)ccc3n2C)nc2cccc(C)n12 [Example I-26] | 3.35 | – | 83% | – | –
16 | CCOC(=O)c1nc2ccccn2c1SCC [XXII-1, Ethyl 3-(ethylsulphanyl)imidazo[1,2-a]pyridine-2-carboxylate] | – | – | – | – | chromatographic logP [1, 4]: 2.05
17 | CCS(=O)(=O)c1c(C(=O)O)nc2ccccn12 [XXIII-1, 3-(Ethylsulphonyl)imidazo[1,2-a]pyridine-2-carboxylic acid] | – | – | – | – | chromatographic logP [1, 3]: 0.54
18 | CCSc1c(-c2nc3cc(C(F)(F)F)ncc3n2C)nc2c(Cl)cccn12 [Example I-14] | 3.33 | 3.34 | – | – | –
19 | CC[S+]([O-])c1c(-c2nc3cc(C(F)(F)F)ncc3n2C)nc2c(C(F)(F)F)cccn12 (stereo not drawn) [Example I-25] | 3.29 | 3.21 | 100% | 100% | –
20 | CCSc1c(-c2nc3cc(C(F)(F)F)ncc3n2C)nc2cc(C(F)(F)F)ccn12 [Example I-16] | 3.80 | 3.80 | 100% | 100% | –
21 | CCSc1c(-c2nc3cc(C(F)(F)F)ccc3n2C)nc2cccc(C(F)(F)F)n12 [Example I-27] | 4.09 | – | – | – | –
22 | CCSc1ccn2c(SCC)c(-c3nc4cc(C(F)(F)F)ccc4n3C)nc2c1 [Example I-32] | 4.23 | – | – | – | –
23 | CCSc1cccn2c(SCC)c(-c3nc4cc(C(F)(F)F)ncc4n3C)nc12 [Example I-15] | 3.99 | 3.93 | – | – | –
24 | CCOC(=O)c1nc2ccccn2c1S(=O)(=O)CC [XXIV-1, Ethyl 3-(ethylsulphonyl)imidazo[1,2-a]pyridine-2-carboxylate] | – | – | – | – | chromatographic logP [1, 4]: 1.52
25 | CCSc1c(-c2nc3cc(C(F)(F)F)ncc3n2C)nc2cccc(C(F)(F)F)n12 [Example I-20] | 3.50 | – | – | – | –

Continued, in another order:

Row | LOGP_HCOOH [1, 2] | LOGP_NEUTRAL ([1]; neutral range, 55° C.) | SMILES | efficacy (Phaedon cochleariae; 500 g/ha) | efficacy (Spodoptera frugiperda) | also measured
26 | 4.11 | – | CCSc1c(-c2nc3cc(C(F)(F)F)cnc3o2)nc2cccc(C(F)(F)F)n12 [Example I-57] | – | – | –
27 | 4.14 | – | CCSc1c(-c2nc3cc(C(F)(F)F)cnc3o2)nc2ccc(C(F)(F)F)cn12 [Example I-58] | – | – | –
28 | 3.25 | 3.41 | CCSc1c(-c2nc3cc(C(F)(F)F)ccc3n2C)nc2ccccn12 [Example I-9] | 100% | – | –
29 | 2.53 | 2.52 | CCS(=O)(=O)c1c(-c2nc3cc(C(F)(F)F)cnc3o2)nc2ccccn12 [Example I-44, 2-[3-(Ethylsulphonyl)imidazo[1,2-a]pyridin-2-yl]-6-(trifluoromethyl) [1,3]oxazolo[5,4-b]pyridine] | 100% | 83% | chromatographic logP [1, 4]: 2.52
30 | – | 3.15 | CCSc1c(-c2nc3cc(C(F)(F)F)cnc3o2)nc2ccccn12 [Example I-60, 2-[3-(Ethylsulphanyl)imidazo[1,2-a]pyridin-2-yl]-6-(trifluoromethyl) [1,3]oxazolo[5,4-b]pyridine] | – | – | chromatographic logP [1, 5]: 3.2; chromatographic logP [1, 4]: 3.15
31 | 3.34 | – | CCS(=O)(=O)c1c(-c2nc3cc(C(F)(F)F)ccc3n2C)nc2ccc(Cl)cn12 [Example I-42] | 100% | 100% | –
32 | – | 2.59 | CCS(=O)(=O)c1c(-c2nc3cc4c(cc3[nH]2)OC(F)(F)O4)nc2ccccn12 [Example I-40, 6-[3-(Ethylsulphonyl)imidazo[1,2-a]pyridin-2-yl]-2,2-difluoro-5H-[1,3]dioxolo[4,5-f]benzimidazole] | 100% | – | chromatographic logP [1, 5]: 2.51; chromatographic logP [1, 4]: 2.59
33 | 3.53 | – | CCS(=O)(=O)c1c(-c2nc3cc(C(F)(F)F)cnc3o2)nc2cc(C(F)(F)F)ccn12 [Example I-49] | 100% | 100% | –
34 | 3.21 | 3.20 | CCS(=O)(=O)c1c(-c2nc3cc(C(F)(F)F)cnc3s2)nc2ccccn12 [Example I-51] | – | – | –
35 | 2.89 | – | CCS(=O)(=O)c1c(-c2nc3cc(C(F)(F)F)cnc3o2)nc2ccc(C)cn12 [Example I-56] | – | – | –
36 | 3.51 | – | CCS(=O)(=O)c1c(-c2nc3cc(C(F)(F)F)cnc3o2)nc2ccc(C(F)(F)F)cn12 [Example I-47] | 100% | 83% | –
37 | 4.14 | – | CCSc1c(-c2nc3cc(C(F)(F)F)cnc3o2)nc2cc(C(F)(F)F)ccn12 [Example I-50] | 100% | 100% | –
38 | 3.70 | – | CCS(=O)(=O)c1c(-c2nc3cc(C(F)(F)F)ccc3n2C)nc2ccc(C(F)(F)F)cn12 [Example I-36] | 100% | 100% | –
39 | 3.60 | – | CCS(=O)(=O)c1c(-c2nc3cc(C(F)(F)F)ccc3s2)nc2ccccn12 [Example I-43] | – | – | efficacy (Phaedon cochleariae; 100 g/ha): 83%
